Test results from US10221172B2, “Benzothiazole and benzisothiazole-substituted compounds as mGluR4 allosteric potentiators, compositions, and methods of treating neurological dysfunction” (Vanderbilt University, priority 2015, dated 2019).

Molecular target: human mGluR4 (Homo sapiens (Human), UniProt Q14833)
Experiment: mGluR4 potentiation assay, CHO cells transfected with human mGluR4, Ca2+-sensitive dye, EC20 agonist
Assay type: cell-based
Conditions: potentiation of mGluR4
Experimental: The disclosed compounds and compositions can be evaluated for their ability to act as a potentiator of metabotropic glutamate receptor activity, in particular mGluR4 activity, by any suitable known methodology known in the art. For example, Chinese Hamster Ovary (CHO) cells transfected with human mGluR4 or HEK cells co-transfected with rat mGluR4 and the G-protein regulated Inwardly Rectifying Potassium channel (GIRK) were plated in clear bottom assay plates for assay in a Hamamatsu FDSS Fluorometric Plate Reader. The cells were loaded with either a Ca2+-sensitive fluorescent dye or the thallium responsive dye and the plates were washed and placed into a suitable kinetic plate reader. For human mGluR4 assays, a fluorescence baseline was established for 3-5 seconds, the disclosed compounds were then added to the cells, and the response in cells was measured. Approximately two and a half minutes later, a concentration of mGluR4 orthosteric agonist (e.g. glutamate or L-AP4) eliciting approximately 20% (EC20) of the maximal agonist response was added to the cells, and the response was measured. Two minutes later, a concentration of mGluR4 agonist (e.g. glutamate or L-AP4) eliciting 80% (EC80) of the maximal agonist response was added to the cells, and the response was measured. For rat mGluR4/GIRK experiments, a baseline was established for approximately five seconds, disclosed compounds were added, and either an EC20 or EC80 concentration of agonist was added approximately two and one half minutes later. Potentiation of the agonist response of mGluR4 by the disclosed compounds was observed as an increase in response to the EC20 concentration of agonist in the presence of compound compared to the response to agonist in the absence of compound. Similarly, antagonism of the agonist response of mGluR4 by the disclosed compounds was observed as a decrease in response to the EC80 concentration of agonist in the presence of compound compared to the response to agonist in the absence of compound.
The above described assay operated in two modes. In the first mode, a range of concentrations of the disclosed compounds are added to cells, followed by a single fixed concentration of agonist. If the compound acts as a potentiatior, an EC50 value for potentiation and a maximum extent of potentiation by the compound at this concentration of agonist is determined by non-linear curve fitting. If the compound acts as a noncompetitive antagonist, an IC50 value is determined by non-linear curve fitting. In the second mode, several fixed concentrations of the disclosed compounds are added to various wells on a plate, followed by a range in concentrations of agonist for each concentration of disclosed compound. The EC50 values for the agonist at each concentration of compound are determined by non-linear curve fitting. A decrease in the EC50 value of the agonist with increasing concentrations of the sample compound (a leftward shift of the agonist concentration-response curve) is an indication of the degree of mGluR4 potentiation at a given concentration of the sample compound. A decrease in the maximal response of the agonist with increasing concentrations of the sample compounds, with or without a rightward shift in agonist potency, is an indication of the degree of noncompetitive antagonism at mGluR4. The second mode also indicates whether the sample compounds also affect the maximum response to mGluR4 to agonists.

[1] = main compound table, species not given
[2] = summary list repeated at the end of the table, species not stated

Sequence of human mGluR4 (Q14833 33-912): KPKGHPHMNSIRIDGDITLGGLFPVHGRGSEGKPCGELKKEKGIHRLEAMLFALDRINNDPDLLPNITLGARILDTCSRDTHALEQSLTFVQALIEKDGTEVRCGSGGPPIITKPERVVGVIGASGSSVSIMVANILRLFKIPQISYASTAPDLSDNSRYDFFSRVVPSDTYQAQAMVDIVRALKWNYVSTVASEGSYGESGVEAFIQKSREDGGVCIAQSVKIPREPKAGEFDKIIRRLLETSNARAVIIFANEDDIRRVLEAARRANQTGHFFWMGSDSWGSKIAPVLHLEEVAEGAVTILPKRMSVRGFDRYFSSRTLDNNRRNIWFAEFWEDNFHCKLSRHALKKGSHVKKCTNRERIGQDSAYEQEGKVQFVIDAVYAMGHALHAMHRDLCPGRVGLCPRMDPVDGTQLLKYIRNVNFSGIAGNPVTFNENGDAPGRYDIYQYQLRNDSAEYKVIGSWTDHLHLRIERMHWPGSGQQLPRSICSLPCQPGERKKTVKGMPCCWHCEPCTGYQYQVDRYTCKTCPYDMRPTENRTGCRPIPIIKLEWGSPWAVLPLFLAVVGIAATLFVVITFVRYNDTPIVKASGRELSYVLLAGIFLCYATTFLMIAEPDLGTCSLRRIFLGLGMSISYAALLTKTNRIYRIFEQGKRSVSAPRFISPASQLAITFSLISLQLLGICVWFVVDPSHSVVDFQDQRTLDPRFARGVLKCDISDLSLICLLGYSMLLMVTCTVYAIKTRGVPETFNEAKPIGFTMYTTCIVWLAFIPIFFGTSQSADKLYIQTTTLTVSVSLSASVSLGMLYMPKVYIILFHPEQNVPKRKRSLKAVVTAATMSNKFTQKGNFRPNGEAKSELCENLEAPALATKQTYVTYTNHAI

Compound | EC50 [1] | EC50 [2]
Cc1nsc2ccc(Nc3n[nH]c4cccnc34)cc12 [Example 1, 3-methyl-N-(1H-pyrazolo[4,3-b]pyridin-3-yl)benzo[d]isothiazol-5-amine] | 0.187 µM | 0.187 µM
CC(C)(C)Cc1nsc2cc(Nc3n[nH]c4cccnc34)ccc12 [Example 2, 3-neopentyl-N-(1H-pyrazolo[4,3-b]pyridin-3-yl)benzo[d] isothiazol-6-amine] | 0.284 µM | 0.284 µM
O=C(c1nsc2cc(Nc3n[nH]c4cccnc34)ccc12)N1CCC(F)(F)C1 [Example 3, (6-((1H-pyrazolo [4,3-b]pyridin-3-yl)amino)benzo[d]isothiazol-3-yl) (3,3-difluoropyrrolidin-1-yl) methanone] | 0.325 µM | 0.325 µM
O=C(NC1CC(F)(F)C1)c1nsc2cc(Nc3n[nH]c4cccnc34)ccc12 [Example 4, 6-((1H-pyrazolo[4,3-b]pyridin-3-yl)amino)-N-(3,3-difluorocyclobutyl)benzo[d] isothiazole-3-carboxamide] | 0.032 µM | 0.032 µM
O=C(c1nsc2cc(Nc3n[nH]c4cccnc34)ccc12)N1CCC(F)(F)CC1 [Example 5, (6-((1H-pyrazolo[4,3-b]pyridin-3-yl)amino)benzo[d]isothiazol-3-yl) (4,4-difluoropiperidin-1-yl) methanone] | 0.06 µM | 0.06 µM
O=C(c1nsc2cc(Nc3n[nH]c4cccnc34)ccc12)N1CCOCC1 [Example 6, (6-((1H-pyrazolo [4,3-b]pyridin-3-yl)amino)benzo[d]isothiazol-3-yl)(morpholino) methanone] | 0.303 µM | 0.303 µM
CC1CN(C(=O)c2nsc3cc(Nc4n[nH]c5cccnc45)ccc23)CC(C)O1 (stereo not shown) [Example 7, (6-((1H-pyrazolo [4,3-b]pyridin-3-yl)amino)benzo[d]isothiazol-3-yl) (2,6-dimethyl-morpholino) methanone] | 0.306 µM | 0.306 µM
O=C(c1nsc2cc(Nc3n[nH]c4cccnc34)ccc12)N1CCS(=O)(=O)CC1 [Example 8, (6-((1H-pyrazolo [4,3-b]pyridin-3-yl)amino)benzo[d]isothiazol-3-yl)(1,1-dioxido-thiomorpholino) methanone] | 0.136 µM | 0.136 µM
O=C(c1nsc2cc(Nc3n[nH]c4cccnc34)ccc12)N1CCCC(F)(F)C1 [Example 9, (6-((1H-pyrazolo [4,3-b]pyridin-3-yl)amino)benzo[d]isothiazol-3-yl) (3,3-difluoropiperidin-1-yl)methanone] | 0.233 µM | 0.233 µM
O=C(c1nsc2cc(Nc3n[nH]c4cccnc34)ccc12)N1CCCC1 [Example 10, (6-((1H-pyrazolo [4,3-b]pyridin-3-yl)amino)benzo[d]isothiazol-3-yl) (pyrrolidin-1-yl) methanone] | 1.34 µM | 1.34 µM
O=C(c1nsc2cc(Nc3n[nH]c4cccnc34)ccc12)N1CCCC1c1ccccn1 (stereo not shown) [Example 11, (6-((1H-pyrazolo [4,3-b]pyridin-3-yl)amino)benzo[d]isothiazol-3-yl)(2-(pyridin-2-yl)pyrrolidin-1-yl) methanone] | > 10 µM | > 10 µM
CN1CCN(C(=O)c2nsc3cc(Nc4n[nH]c5cccnc45)ccc23)CC1 [Example 12, (6-((1H-pyrazolo [4,3-b]pyridin-3-yl)amino)benzo[d]isothiazol-3-yl)(4-methylpiperazin-1-yl) methanone] | 1.14 µM | 1.14 µM
O=C(c1nsc2cc(Nc3n[nH]c4cccnc34)ccc12)N1CCN2CCCC2C1 (stereo not shown) [Example 13, (6-((1H-pyrazolo [4,3-b]pyridin-3-yl)amino)benzo[d]isothiazol-3-yl)(hexahydropyrrolo [1,2-a]pyrazin-2(1H)-yl)methanone] | 1.61 µM | 1.61 µM
O=C(c1nsc2cc(Nc3n[nH]c4cccnc34)ccc12)N1CCC(N2CCOCC2)C1 (stereo not shown) [Example 14, (6-((1H-pyrazolo[4,3-b]pyridin-3-yl)amino)benzo[d]isothiazol-3-yl) (3-morpholinopyrrolidin-1-yl)methanone] | 3.45 µM | 3.45 µM
